Patent publication US20110136792A1, “NOVEL CARBOXYLIC ACID ANALOGS AS GLYCOGEN SYNTHASE ACTIVATORS” (priority 2009, published 2011)

System: glycogen synthase
Assay: Glycogen Synthase (GS) Assay
Assay type: biochemical
Conditions: coupled pyruvate kinase/lactate dehydrogenase assay, absorbance at 340 nm; for EC50: compound concentration needed to give 50% maximum activation; for GS SC200: compound concentration needed to stimulate 200% of the enzyme activity
Method: The following tests were carried out in order to determine the activity of the compounds of formula (I).
Twelve μL per well of substrate solution containing glycogen (4.32 mg/ml), 2.67 mM UDP-glucose, 21.6 mM phospho(enol)pyruvate and 2.7 mM NADH in 30 mM glycylglycine, pH 7.3 buffer was added into a polystyrene 384-well assay plate (BD Biosciences).
Compound solutions (8 μL/well) at various concentrations (0-300 μM) were added to the assay plate (columns 5-24). Compound solution contains 30 mM glycylglycine, pH 7.3, 40 mM KCl, 20 mM MgCl2, 9.2% DMSO, with (columns 15-24) or without (columns 5-14) 20 mM glucose 6-phosphate.
Enzyme solution (12 μL/well) containing glycogen synthase (16.88 μg/ml), pyruvate kinase (0.27 mg/ml), lactate dehydrogenase (0.27 mg/ml) in 50 mM Tris-HCl, pH 8.0, 27 mM DTT and bovine serum albumin (BSA, 0.2 mg/ml) was added to the assay plate (columns 3-24). As a blank control, enzyme solution without glycogen synthase was added into the top half wells of columns 1-2. To the bottom half wells of columns 1-2 were added a known activator, glucose 6-phosphate (at final concentration 5 mM) in addition to the enzyme solution. The reaction mixture was incubated at room temperature. The assay plate was then read for absorbance at 340 nm on an Envision reader every 3 minutes up to a total of 15 minutes.
The enzyme activity (with or without compound) was calculated by the reaction rate and represented by the optical density change (δOD) per minute. Percent stimulation of glycogen synthase activity by a compound at various concentrations was calculated by the following formula: […]
Where Rs is the reaction rate of the enzyme in the presence of compound and Rt is the reaction rate of the enzyme in the absence of compound.
SC200 is defined as the compound concentration that is needed to stimulate 200% of the enzyme activity. EC50 is defined as the compound concentration that is needed to give 50% maximum activation.
Compounds from Examples 1 through Example 64 were assayed according to assay procedures described above and the result is listed in Table 1 below: […]

Compound	EC50	GS SC200
CCC(=O)N(CC(=O)O)Cc1cccc(COc2ccc(-c3cc(F)c(F)cc3OC)cc2)c1 [Example 23, {[3-(4′,5′-Difluoro-2′-methoxy-biphenyl-4-yloxymethyl)-benzyl]-propionyl-amino}-acetic acid]	0.37 µM	0.10 µM
COCCC(=O)N(CC(=O)O)Cc1cccc(COc2ccc(-c3cc(F)c(F)cc3OC)cc2)c1 [Example 26, [[3-(4′,5′-Difluoro-2′-methoxy-biphenyl-4-yloxymethyl)-benzyl]-(3-methoxy-propionyl)-amino]-acetic acid]	0.45 µM	0.05 µM
COc1cc(F)c(F)cc1-c1ccc(OCc2cccc(CN(CC(=O)O)C(=O)c3cscn3)c2)cc1 [Example 27, [[3-(4′,5′-Difluoro-2′-methoxy-biphenyl-4-yloxymethyl)-benzyl]-(thiazole-4-carbonyl)-amino]-acetic acid]	0.52 µM	0.08 µM
COc1cc(F)c(F)cc1-c1ccc(OCc2cccc(CN3C(C(=O)O)CCS3(=O)=O)c2)cc1 (racemic) [Example 43, 2-[3-(4′,5′-Difluoro-2′-methoxy-biphenyl-4-yloxymethyl)-benzyl]-1,1-dioxo-1lambda*6*-isothiazolidine-3-carboxylic acid]	0.19 µM	0.03 µM
COC(=O)N(CC(=O)O)Cc1cccc(COc2ccc(-c3cc(F)c(F)cc3OC)cc2)c1 [Example 19, {[3-(4′,5′-Difluoro-2′-methoxy-biphenyl-4-yloxymethyl)-benzyl]-methoxycarbonyl-amino}-acetic acid]	1.82 µM	0.42 µM
COc1cc(F)c(F)cc1-c1ccc(OCc2cccc(CN(CC(=O)O)C(=O)c3cccnc3)c2)cc1 [Example 30, [[3-(4′,5′-difluoro-2′-methoxy-biphenyl-4-yloxymethyl)-benzyl]-(pyridine-3-carbonyl)-amino]-acetic acid]	0.47 µM	0.04 µM
COCC(C)C(=O)N(CC(=O)O)Cc1cccc(COc2ccc(-c3cc(F)c(F)cc3OC)cc2)c1 (stereo not drawn) [Example 31]	0.48 µM	0.07 µM
COc1cc(F)c(F)cc1-c1ccc(OCc2cccc(CN(CC(=O)O)C(=O)[C@H]3CCCO3)c2)cc1 [Example 33, [[3-(4′,5′-Difluoro-2′-methoxy-biphenyl-4-yloxymethyl)-benzyl]-((R)-tetrahydro-furan-2-carbonyl)-amino]-acetic acid]	0.35 µM	0.02 µM
O=C(O)[C@@H]1CCS(=O)(=O)N1Cc1cccc(COc2ccc(-c3cc(F)c(F)cc3F)cc2)c1 [Example 46, (S)-1,1-Dioxo-2-[3-(2′,4′,5′-trifluoro-biphenyl-4-yloxymethyl)-benzyl]-1lambda*6*-isothiazolidine-3-carboxylic acid]	0.09 µM	0.01 µM
O=C(O)C1CCS(=O)(=O)N1Cc1cccc(COc2ccc(-c3cc(F)c(F)cc3F)cc2)c1 (racemic) [Example 38, 1,1-Dioxo-2-[3-(2′,4′,5′-trifluoro-biphenyl-4-yloxymethyl)-benzyl]-1lambda*6*-isothiazolidine-3-carboxylic acid]	0.13 µM	0.05 µM
COc1cc(F)c(F)cc1-c1ccc(OCc2cccc(CN(CC(=O)O)C(=O)C3CCC3)c2)cc1 [Example 4, {Cyclobutanecarbonyl-[3-(4′,5′-difluoro-2′-methoxy-biphenyl-4-yloxymethyl)-benzyl]-amino}-acetic acid]	0.72 µM	0.18 µM
O=C(O)C1CCS(=O)(=O)N1Cc1cccc(COc2ccc(-c3cc(F)c(F)cc3Cl)cc2)c1 (racemic) [Example 40, 2-[3-(2′-Chloro-4′,5′-difluoro-biphenyl-4-yloxymethyl)-benzyl]-1,1-dioxo-1lambda*6*-isothiazolidine-3-carboxylic acid]	0.2 µM	0.04 µM
